Measurements taken from patent publication US20250241838A1, “COSMETIC COMPOSITION FOR WITH ANTI-GLYCATION EFFECT FOR ENHANCING SKIN RESISTANCE TO AGING” (L'OREAL, priority 2024, published 2025).
Entries after “also recorded” stand apart in the source; their conditions may differ. Like-named read-outs stand apart in the source and are kept apart here.

System: BSA (bovine serum albumin)
Experiment: In vitro/in tubo glycation study: BSA + D-ribose, fluorescence intensity
Type: biochemical
Protocol: A study was conducted in vitro/in tubo to evaluate if the ingredients of the inventive composition have anti-glycation effects in an in tubo environment.
The in tubo experiments were conducted to evaluate glycation of BSA (bovine serum albumin) under control conditions and with exposure to an embodiment of the inventive composition. Samples were prepared, including inventives, comparatives, baseline, and positive and negative controls.
A test plate was prepared with discrete wells for receiving each of the test compositions. Solutions representing the active ingredient concentrations listed under “Ingredient” in Table 3, below, were added to a well containing BSA+D-ribose (the Indicator Solution) and PBS. The total amount of Test Solutions added for the inventive compositions was always the same for all tests-25 microliters-5 microliters of each Test Solution (Ingredient) per well. PBS was used as the solvent for the Test Solution. Plates were prepared in triplicate.
Tested Compositions: Blank: PBS+BSA, Negative control: PBS+BSA+D-ribose, Positive control: PBS+BSA+D-ribose+Aminoguanidine, Five Inventive […]
Samples were plated in triplicate and readings taken at the indicated wavelength at day 1 and day 14.
Evaluations of Fluorescent Intensity were made at ex 370 nm/em 440 nm
Samples were evaluated at time intervals of 0 days, 3 days, 14 Days, 21 Days. The main purpose of incorporating time intervals is to provide sufficient duration for capturing the anti-glycation effect. It is crucial to build in multiple time points to adequately capture the anti-glycation effects since they can vary depending on the specific ingredients used.
Magnitude of fluorescence intensity is positively indicative of extent of glycation. Glycation is expected to be maximal with negative control (BSA plus D-ribose), while glycation of positive control with known antiglycation agent, Aminoguanidine, is expected to be reduced relative to negative control.
Evaluation of anti-glycation effect of individual ingredients: each of Activated C, Dandelion Extract, Caffeine, Lavender Oil, and Vitamin E (5 microliter quantities) were plated with 245 microliter of [PBS+BSA+D-ribose]. Concentrations of each ingredient added to the wells were as follows Activated C (100%, 50%, 10%, 5% and 1%), Dandelion Extract (100%, 50%, 30%, 15% and 3%), Caffeine (2%, 1.5%, 1%, 0.5% and 0.1%), Lavender Oil (100%, 50%, 0.15%, 0.08% and 0.15%), and Vitamin E (100%, 50%, 1%, 0.5% and 0.1%).

[1] = each ingredient alone, 5 microliter plated with 245 microliter PBS+BSA+D-ribose, five concentrations each, data not shown

CCOC1=C(O)C(=O)O[C@@H]1[C@@H](O)CO [Activated C, 3-O-ETHYL ASCORBIC ACID]
anti-glycation effect of individual ingredients [1]: glycation effect only at high levels | anti-glycation effect of individual ingredients (each ingredient alone, 5 microliter plated with 245 microliter PBS+BSA+D-ribose, five concentrations each, data not shown, listed as Ascorbic acid): reduction of glycation at high doses only

Cn1c(=O)c2c(ncn2C)n(C)c1=O [Caffeine]
anti-glycation effect of individual ingredients: no glycation effect; also recorded: no significant reduction in glycation

N=C(N)NN [Positive control, Aminoguanidine]
Fluorescence intensity (day 14 readings, ex 370 nm/em 440 nm, PBS+BSA+D-ribose, intensity positively indicative of extent of glycation): 2.921 | Percent reduction in glycation (%) (day 14 readings, relative to negative control (PBS+BSA+D-ribose)): 23%

tocopherol [Vitamin E]
anti-glycation effect of individual ingredients [1]: no glycation effect | anti-glycation effect of individual ingredients (each ingredient alone, 5 microliter plated with 245 microliter PBS+BSA+D-ribose, five concentrations each, data not shown, listed as vitamin E): no significant reduction in glycation
